# Data from ChEMBL document CHEMBL3526080, “In vitro inhibition of the bile salt export pump correlates with risk of cholestatic drug-induced liver injury in humans” (Drug Metab Dispos, 2012).
# Assays:
# Bile salt export pump [1] = target: Bile salt export pump (Homo sapiens, UniProt O95342); assay: Inhibition of human BSEP expressed in plasma membrane vesicles of Sf21 cells assessed as inhibition of ATP-dependent [3H]taurocholate uptake; type: cell membranes
# Bile salt export pump [2] = target: Bile salt export pump (Rattus norvegicus, UniProt O70127); assay: Inhibition of Sprague-Dawley rat Bsep expressed in plasma membrane vesicles of Sf21 cells assessed as inhibition of ATP-dependent [3H]taurocholate uptake; type: cell membranes
# Sequence of Bile salt export pump (Rattus norvegicus, UniProt O70127) (O70127 whole entry): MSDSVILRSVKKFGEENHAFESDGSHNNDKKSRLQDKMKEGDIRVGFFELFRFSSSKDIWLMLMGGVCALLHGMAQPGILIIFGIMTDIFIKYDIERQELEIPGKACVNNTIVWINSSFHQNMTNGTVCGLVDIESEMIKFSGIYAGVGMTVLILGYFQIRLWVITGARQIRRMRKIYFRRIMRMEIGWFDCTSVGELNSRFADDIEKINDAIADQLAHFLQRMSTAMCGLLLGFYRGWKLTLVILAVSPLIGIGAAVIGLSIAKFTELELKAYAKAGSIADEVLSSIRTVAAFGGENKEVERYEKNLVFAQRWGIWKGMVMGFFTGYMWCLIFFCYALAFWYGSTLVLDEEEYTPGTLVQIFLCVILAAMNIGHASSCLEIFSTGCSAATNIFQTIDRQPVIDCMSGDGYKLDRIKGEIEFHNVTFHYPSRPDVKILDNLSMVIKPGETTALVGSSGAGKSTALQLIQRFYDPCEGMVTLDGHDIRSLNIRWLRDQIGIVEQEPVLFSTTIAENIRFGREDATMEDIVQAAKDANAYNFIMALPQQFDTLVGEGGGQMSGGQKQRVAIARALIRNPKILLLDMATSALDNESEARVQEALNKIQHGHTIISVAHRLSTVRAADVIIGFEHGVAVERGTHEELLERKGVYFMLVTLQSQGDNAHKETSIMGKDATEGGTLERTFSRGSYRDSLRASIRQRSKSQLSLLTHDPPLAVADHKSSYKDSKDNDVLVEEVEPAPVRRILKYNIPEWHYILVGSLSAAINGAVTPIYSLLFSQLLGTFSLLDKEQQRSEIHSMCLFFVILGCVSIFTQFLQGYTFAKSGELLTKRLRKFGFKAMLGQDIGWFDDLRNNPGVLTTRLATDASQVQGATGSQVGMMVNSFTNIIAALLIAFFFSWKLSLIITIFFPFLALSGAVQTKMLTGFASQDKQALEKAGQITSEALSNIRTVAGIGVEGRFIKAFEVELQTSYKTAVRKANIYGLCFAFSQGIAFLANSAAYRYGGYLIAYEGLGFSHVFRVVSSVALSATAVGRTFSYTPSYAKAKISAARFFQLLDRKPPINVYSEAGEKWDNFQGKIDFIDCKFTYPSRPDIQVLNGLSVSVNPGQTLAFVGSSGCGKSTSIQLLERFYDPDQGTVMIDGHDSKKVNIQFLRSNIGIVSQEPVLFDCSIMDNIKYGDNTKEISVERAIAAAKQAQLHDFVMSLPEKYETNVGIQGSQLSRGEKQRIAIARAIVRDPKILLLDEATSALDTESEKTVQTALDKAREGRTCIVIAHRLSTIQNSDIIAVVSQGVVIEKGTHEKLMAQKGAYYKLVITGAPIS
# Sequence of Bile salt export pump (Homo sapiens, UniProt O95342) (O95342 whole entry): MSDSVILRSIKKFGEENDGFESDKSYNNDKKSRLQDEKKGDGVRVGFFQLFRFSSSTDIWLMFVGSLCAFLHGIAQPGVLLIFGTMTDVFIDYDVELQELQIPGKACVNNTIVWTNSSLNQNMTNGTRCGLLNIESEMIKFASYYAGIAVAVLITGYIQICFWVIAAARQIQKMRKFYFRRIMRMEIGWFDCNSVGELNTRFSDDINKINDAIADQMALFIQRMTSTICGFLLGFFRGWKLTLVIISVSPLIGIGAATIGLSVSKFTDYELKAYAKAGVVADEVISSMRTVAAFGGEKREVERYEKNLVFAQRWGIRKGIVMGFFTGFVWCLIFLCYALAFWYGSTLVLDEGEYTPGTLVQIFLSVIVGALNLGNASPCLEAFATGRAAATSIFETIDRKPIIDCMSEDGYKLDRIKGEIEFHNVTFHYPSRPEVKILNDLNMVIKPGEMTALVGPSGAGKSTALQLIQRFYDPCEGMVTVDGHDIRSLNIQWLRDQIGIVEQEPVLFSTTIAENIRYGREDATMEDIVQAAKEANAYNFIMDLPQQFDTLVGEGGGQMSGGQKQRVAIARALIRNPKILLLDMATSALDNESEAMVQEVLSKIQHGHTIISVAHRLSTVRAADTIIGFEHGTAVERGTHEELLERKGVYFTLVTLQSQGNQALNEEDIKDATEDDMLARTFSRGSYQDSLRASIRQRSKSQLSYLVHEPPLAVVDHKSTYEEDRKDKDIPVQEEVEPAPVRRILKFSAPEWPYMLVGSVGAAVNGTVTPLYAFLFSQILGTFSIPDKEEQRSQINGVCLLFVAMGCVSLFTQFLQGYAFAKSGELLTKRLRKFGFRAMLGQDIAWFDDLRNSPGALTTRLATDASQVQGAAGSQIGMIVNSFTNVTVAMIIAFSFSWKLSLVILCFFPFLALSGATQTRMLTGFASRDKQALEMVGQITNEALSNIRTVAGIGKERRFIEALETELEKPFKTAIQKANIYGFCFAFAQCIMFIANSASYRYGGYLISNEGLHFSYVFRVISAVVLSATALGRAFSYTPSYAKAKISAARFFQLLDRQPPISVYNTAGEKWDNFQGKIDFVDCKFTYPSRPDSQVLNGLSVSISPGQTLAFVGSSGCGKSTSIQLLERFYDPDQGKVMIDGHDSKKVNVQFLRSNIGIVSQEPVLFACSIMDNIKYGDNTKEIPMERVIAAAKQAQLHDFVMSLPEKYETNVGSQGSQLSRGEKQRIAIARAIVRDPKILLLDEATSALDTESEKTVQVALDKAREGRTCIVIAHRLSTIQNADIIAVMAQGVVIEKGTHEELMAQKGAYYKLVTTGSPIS
SMILES,IC50 (Bile salt export pump [1]),IC50 (Bile salt export pump [2])
CN(C)CCCN1c2ccccc2Sc2ccc(Cl)cc21 [CHLORPROMAZINE],148 µM,122 µM
CN1Cc2c(N)cccc2C(c2ccccc2)C1 (stereo unspecified) [NOMIFENSINE],> 1000 µM,> 1000 µM
CC(C)Cc1ccc(C(C)C(=O)O)cc1 (stereo unspecified) [IBUPROFEN],599 µM,291 µM
NNC(=O)c1ccncc1 [ISONIAZID],> 1000 µM,> 1000 µM
NNc1nnc(NN)c2ccccc12 [DIHYDRALAZINE],> 1000 µM,> 1000 µM
CN(C)CCN(Cc1cccs1)c1ccccn1,> 1000 µM,> 1000 µM
CCCNC(=O)NS(=O)(=O)c1ccc(Cl)cc1 [CHLORPROPAMIDE],> 1000 µM,> 1000 µM
CCC(=O)O[C@]1(C(=O)CCl)[C@@H](C)C[C@H]2[C@@H]3CCC4=CC(=O)C=C[C@]4(C)[C@@]3(F)[C@@H](O)C[C@@]21C [CLOBETASOL PROPIONATE],8.5 µM,35 µM
